The values that follow come from paper PMC8869358, “High-Throughput Chemical Screening and Structure-Based Models to Predict hERG Inhibition” (Biology, 2022).

Structures can show the parent of a compound that is named as a salt.

Sequence of hERG (Q12809 whole entry): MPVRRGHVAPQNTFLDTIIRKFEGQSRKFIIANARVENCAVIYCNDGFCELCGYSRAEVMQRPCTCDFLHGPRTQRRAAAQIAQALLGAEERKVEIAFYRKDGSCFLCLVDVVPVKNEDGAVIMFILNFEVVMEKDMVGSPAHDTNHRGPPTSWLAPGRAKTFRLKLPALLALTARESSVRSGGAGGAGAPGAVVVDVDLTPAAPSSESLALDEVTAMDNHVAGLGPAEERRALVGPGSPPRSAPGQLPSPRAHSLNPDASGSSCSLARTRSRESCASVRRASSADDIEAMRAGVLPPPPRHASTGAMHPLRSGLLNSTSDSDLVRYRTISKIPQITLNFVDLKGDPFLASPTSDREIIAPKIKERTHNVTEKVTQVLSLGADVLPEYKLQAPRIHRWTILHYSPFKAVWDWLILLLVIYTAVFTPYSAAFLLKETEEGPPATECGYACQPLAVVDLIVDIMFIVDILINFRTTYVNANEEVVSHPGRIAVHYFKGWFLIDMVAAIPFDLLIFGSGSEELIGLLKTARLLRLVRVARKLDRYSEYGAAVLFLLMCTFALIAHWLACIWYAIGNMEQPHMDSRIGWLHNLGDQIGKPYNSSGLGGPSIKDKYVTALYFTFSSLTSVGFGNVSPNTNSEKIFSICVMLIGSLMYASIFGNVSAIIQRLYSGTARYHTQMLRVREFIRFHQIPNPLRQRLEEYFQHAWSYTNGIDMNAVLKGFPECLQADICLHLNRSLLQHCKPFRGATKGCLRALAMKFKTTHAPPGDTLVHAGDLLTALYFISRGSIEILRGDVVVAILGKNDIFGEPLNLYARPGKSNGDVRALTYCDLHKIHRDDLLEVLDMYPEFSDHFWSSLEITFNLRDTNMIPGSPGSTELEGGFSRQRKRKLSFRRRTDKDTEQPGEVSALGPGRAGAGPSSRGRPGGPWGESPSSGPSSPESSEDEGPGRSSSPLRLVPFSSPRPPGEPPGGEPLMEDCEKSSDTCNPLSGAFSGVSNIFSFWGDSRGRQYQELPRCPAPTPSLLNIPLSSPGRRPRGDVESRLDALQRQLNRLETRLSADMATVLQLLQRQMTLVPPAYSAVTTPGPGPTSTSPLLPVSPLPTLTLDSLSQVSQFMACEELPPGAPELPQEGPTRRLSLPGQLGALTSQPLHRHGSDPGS

This experiment has as its target hERG (Homo sapiens, UniProt Q12809). The experiment is described as follows: cell-based. As to conditions: (-LOG10(IC50), µM).
The term IC50 denotes the midpoint of a concentration-inhibition curve. High values mean lower potency, low ones higher potency. Compound `O=C1c2c(O)ccc(Nc3ccc(CCO)cc3)c2C(=O)c2c([N+](=O)[O-])ccc(O)c21` [C.I. Disperse Blue 27] returned a half-inhibitory concentration (IC50) of 43.6 µM.
Next, `CCN(CCC#N)c1ccc(N=Nc2c(Cl)cc([N+](=O)[O-])cc2Cl)cc1` [C.I. Disperse Orange 37]: 40.4 µM; `CCCN(CCC)C(=O)CN` [C.I. Solvent Black 5]: 9.21 µM.
As for `O=C1OC2(c3ccccc31)c1ccc(O)c(Br)c1Oc1c2ccc(O)c1Br` [C.I. Solvent Red 72], the figure is 34.7 µM; as for `Cc1cc2c3c(c1)C(c1ccccc1)=N[C@@H](NC(=O)c1ccncc1)C(=O)N3CC2` [CI-1018], 25.5 µM.
As for `Cc1nccn1-c1ccc(Sc2cccc(C3(C(N)=O)CCOCC3)c2)cc1` [CJ-013610], the figure is 47.1 µM.
Regarding `NC(=O)N(O)[C@@H]1C=C[C@H](Oc2cccc(Oc3ccc(F)cc3)c2)C1` [CJ-013790], the IC50 was 38.9 µM.
Next, `CCOC(=O)NNc1ccc(N(CC)CC(C)O)nn1` (stereo not shown) [Cadralazine]: 23.9 µM; `CCN(CC)CCNC(C(=O)OCCC(C)C)c1ccccc1` (stereo not shown) [Camylofin]: 6.74 µM.
Next, `N#CC(C#N)=NNc1cccc(Cl)c1` [Carbonyl cyanide chlorophenylhydrazone]: 36 µM.
Next, `CCOC(=O)C(Cl)Cc1cc(-n2nc(C)n(C(F)F)c2=O)c(F)cc1Cl` (stereo not shown) [Carfentrazone-ethyl]: 28.6 µM.
On to `COc1ccc2cc1Oc1ccc(cc1)C[C@H]1c3c(cc4c(c3Oc3cc5c(cc3OC)CCN(C)[C@@H]5C2)OCO4)CCN1C` [Cepharanthine], for which 10.3 µM corresponded to half-maximal inhibition (IC50).
Next, `ClC1=C(Cl)C2(Cl)C3C(Cl)C(Cl)CC3C1(Cl)C2(Cl)Cl` (stereo not shown) [Chlordane]: 30.9 µM; `CCOP(=S)(OCC)OC(Cl)C(Cl)(Cl)Cl` (stereo not shown) [Chlorethoxyfos]: 25.5 µM; `CCOCn1c(-c2ccc(Cl)cc2)c(C#N)c(Br)c1C(F)(F)F` [Chlorfenapyr]: 15.5 µM.
As for `CC(O)(c1ccc(Cl)cc1)c1ccc(Cl)cc1` [Chlorfenethol], the figure is 46.2 µM; as for `CCOC(=O)C(O)(c1ccc(Cl)cc1)c1ccc(Cl)cc1` [Chlorobenzilate], 33.7 µM.
Next, `CC(C)OC(=O)C(O)(c1ccc(Cl)cc1)c1ccc(Cl)cc1` [Chloropropylate]: 22.7 µM; `CN(C)CCN(Cc1ccc(Cl)cc1)c1ccccn1` [Chloropyramine hydrochloride]: 2.39 µM; `C[C@@H](NCCCc1cccc(C(F)(F)F)c1)c1cccc2ccccc12` [Cinacalcet hydrochloride]: 12 µM.
In turn, `CC(C(O)c1ccccc1)N(C)C/C=C/c1ccccc1` (stereo not shown) [Cinnamedrine] showed a concentration for half-maximal inhibition (IC50) of 12 µM.
As for `COc1cc(N)c(Cl)cc1C(=O)NC1CCN(Cc2ccccc2)CC1` [Clebopride maleate], the figure is 15.7 µM; as for `Clc1ccc(Cn2c(CN3CCCC3)nc3ccccc32)cc1` [Clemizole hydrochloride], 1.34 µM.
Next, `CCCC(=O)O[C@]1(C(=O)CCl)[C@@H](C)C[C@H]2[C@@H]3CCC4=CC(=O)C=C[C@]4(C)[C@@]3(F)C(=O)C[C@@]21C` [Clobetasone butyrate]: 8.01 µM; `NC(=O)C1(N2CCCCC2)CCN(CCCN2c3ccccc3CCc3ccc(Cl)cc32)CC1` [Clocapramine]: 1.45 µM.
Consider `C#CCOC(=O)[C@@H](C)Oc1ccc(Oc2ncc(Cl)cc2F)cc1` [Clodinafop-propargyl], for which half-maximal inhibition (IC50) was put at 41 µM.
`CCN(CC)CCNC(=O)COc1ccc(Cl)cc1` [Clofexamide] showed an IC50 of 16.3 µM. This IC50 lies about 2.5-fold lower than the previous one.
Next, `Clc1ccc(C(OCCN2CCCCC2)c2ccccc2)cc1` (stereo not shown) [Cloperastine hydrochloride]: 0.849 µM; `CCCCCC(C)OC(=O)COc1ccc(Cl)c2cccnc12` (stereo not shown) [Cloquintocet-mexyl]: 16.1 µM.
Next, `CCOC(=O)COc1ccc2c(C)c(CCN(CC)CC)c(=O)oc2c1Cl` [Cloricromen hydrochloride]: 20.5 µM; `CN1CCN(C2=Nc3ccccc3Sc3ccc(Cl)cc32)CC1` [Clothiapine]: 21.3 µM.
For `Clc1ccccc1C(c1ccccc1)(c1ccccc1)n1ccnc1` [Clotrimazole], inhibition was half-maximal at 25.5 µM (IC50). The IC50 values of the last two compounds are within 1.5-fold of each other.
Next, `CCOP(=S)(OCC)Oc1ccc2c(C)c(Cl)c(=O)oc2c1` [Coumaphos]: 40.4 µM; `CCN1CCCC(OC(=O)C(c2ccccc2)c2ccccc2)C1` (stereo not shown) [Crapinon]: 5.35 µM; `CC1CCCCN1CCCOC(=O)c1ccc(OC2CCCCC2)cc1` (stereo not shown) [Cyclomethycaine]: 2.68 µM.
As for `O=C1CCCCCCCCCCCCCC1` [Cyclopentadecanone], the figure is 24.5 µM; as for `CCCCOC(=O)[C@@H](C)Oc1ccc(Oc2ccc(C#N)cc2F)cc1` [Cyhalofop-butyl], 4.87 µM; as for `CCCCCCOC(=O)NC(=N)c1ccc(NCc2nc3cc(C(=O)N(CCC(=O)OCC)c4ccccn4)ccc3n2C)cc1` [Dabigatran etexilate], 0.515 µM.
Next, `CN(C)[C@@H](CCOc1cccc2ccccc12)c1ccccc1` [Dapoxetine]: 7.56 µM; `CCCCCCCCCCOCC(O)CN` (stereo not shown) [Decominol hydrochloride]: 20.5 µM.
`CC(C)c1ccc2c(c1)CC[C@H]1[C@](C)(CN)CCC[C@]21C` [Dehydroabietylamine acetate] had an IC50 of 13.3 µM.
With `CC(C)Nc1cccnc1N1CCN(C(=O)c2cc3cc(NS(C)(=O)=O)ccc3[nH]2)CC1` [Delavirdine], it took 11.1 µM to reach half-maximal inhibition (IC50).
As for `CC[N+](CC)(CC(=O)Nc1c(C)cccc1C)Cc1ccccc1` [Denatonium saccharide], the figure is 27.1 µM.
Next, `CCCCNc1ccc(C(=O)OCCN(CC)CC)cc1` [Depolipon]: 19 µM; `COc1ccc(-c2cc(C(F)F)nn2-c2ccc(S(N)(=O)=O)cc2)cc1F` [Deracoxib]: 23.9 µM.
Compound `CN1C(=O)[C@@H](NC(=O)c2cc3ccccc3[nH]2)N=C(c2ccccc2)c2ccccc21` [Devazepide] gave a half-maximal inhibitory concentration (IC50) of 9.52 µM.
Compound `O=C(N=NC(=O)OCc1ccccc1)OCc1ccccc1` [Dibenzyl diazene-1,2-dicarboxylate] had an IC50 of 21.9 µM.
Next, `CCCCOc1cc(C(=O)NCCN(CC)CC)c2ccccc2n1` [Dibucaine]: 6.74 µM.
As for `CN(C)S(=O)(=O)N(SC(F)(Cl)Cl)c1ccccc1` [Dichlofluanid], the figure is 17.4 µM; as for `O=C1C(Cl)=C(Cl)C(=O)c2ccccc21` [Dichlone], 21.9 µM; as for `Oc1ccc(Cl)cc1Cc1cc(Cl)ccc1O` [Dichlorophen], 27 µM.
In turn, `OC(c1ccc(Cl)cc1)(c1ccc(Cl)cc1)C(Cl)(Cl)Cl` [Dicofol] showed a half-maximal inhibitory concentration (IC50) of 30.9 µM. This IC50 and that of the compound before are within 1.5-fold of each other.
Consider `O=C(OC1CCCCC1)c1ccccc1C(=O)OC1CCCCC1` [Dicyclohexyl phthalate], for which half-maximal inhibition (IC50) was put at 23.1 µM.
Next, `CCCCCCCCCC[N+](C)(CCCCCCCCCC)CCC[Si](OC)(OC)OC` [Didecylmethyl(3-(trimethoxysilyl)propyl)ammonium chloride]: 2.65 µM; `ClC1=C(Cl)[C@]2(Cl)[C@@H]3[C@@H]4C[C@@H]([C@H]5O[C@@H]45)[C@@H]3[C@@]1(Cl)C2(Cl)Cl` [Dieldrin]: 33.1 µM; `CC1COC(Cn2cncn2)(c2ccc(Oc3ccc(Cl)cc3)cc2Cl)O1` (stereo not shown) [Difenoconazole]: 22.7 µM.
Compound `Cn1c(-c2ccccc2)cc(-c2ccccc2)[n+]1C` [Difenzoquat metilsulfate] showed a half-maximal inhibitory concentration (IC50) of 34.7 µM.
Next, `CC(C(O)c1ccccc1)N(C)CCOC(c1ccccc1)c1ccccc1` (stereo not shown) [Difeterol]: 1.83 µM; `C[C@@H]1CC[C@@]2(OC1)O[C@H]1[C@@H](O)[C@H]3[C@@H]4CC[C@H]5C[C@@H](O[C@@H]6O[C@H](CO)[C@H](O[C@@H]7O[C@H](CO)[C@@H](O)[C@H](O[C@@H]8OC[C@@H](O)[C@H](O)[C@H]8O)[C@H]7O[C@@H]7O[C@H](CO)[C@@H](O)[C@H](O[C@@H]8O[C@H](CO)[C@@H](O)[C@H](O)[C@H]8O)[C@H]7O)[C@H](O)[C@H]6O)[C@H](O)C[C@]5(C)[C@H]4CC[C@]3(C)[C@H]1[C@@H]2C` [Digitonin]: 8.9 µM.
`CN1C[C@H](C(=O)N[C@]2(C)O[C@@]3(O)[C@@H]4CCCN4C(=O)[C@H](Cc4ccccc4)N3C2=O)C[C@@H]2c3cccc4[nH]cc(c34)C[C@H]21` [Dihydroergotamine] gave a half-inhibitory concentration (IC50) of 19 µM.
As for `Cc1ccc(S(=O)(=O)C(I)I)cc1` [Diiodomethyl 4-methylphenyl sulfone], the figure is 46.2 µM.
`COc1cc(C(=O)OCCCN2CCCN(CCCOC(=O)c3cc(OC)c(OC)c(OC)c3)CC2)cc(OC)c1OC` [Dilazep]: half-maximal inhibition (IC50) was put at 6.01 µM. This IC50 is about 7.7-fold lower than that of the compound before.
As for `CCCCc1cc2ccccc2c(OCCN(C)C)n1` [Dimethisoquin hydrochloride], the midpoint of inhibition, the IC50, lay at 3.65 µM.
In turn, `COc1ccc(C(=CC(=O)N2CCOCC2)c2ccc(Cl)cc2)cc1OC` [Dimethomorph] showed an IC50 of 11.8 µM.
Next, `CC(C)(C)C(O)/C(=C\c1ccc(Cl)cc1Cl)n1cncn1` (stereo not shown) [Diniconazole]: 61.6 µM.
Consider `O=[N+]([O-])c1cccc(S(=O)(=O)NCCNS(=O)(=O)c2cccc([N+](=O)[O-])c2)c1` [Dinsed], for which 14.5 µM corresponded to half-maximal inhibition (IC50). This IC50 is about 4.2-fold lower than that of the compound before.
Next, `C=CC(=O)OCC(CO)(COCC(COC(=O)C=C)(COC(=O)C=C)COC(=O)C=C)COC(=O)C=C` [Dipentaerythritol pentaacrylate]: 8.28 µM; `O=C(Nc1ccccc1)OCC(CN1CCCCC1)OC(=O)Nc1ccccc1` (stereo not shown) [Diperodon hydrochloride]: 6.01 µM; `C[N+]1(C)CCC(=C(c2ccccc2)c2ccccc2)CC1` [Diphemanil methylsulfate]: 6.24 µM.
The compound `CCOC(=O)C1(c2ccccc2)CCN(CCC(C#N)(c2ccccc2)c2ccccc2)CC1` [Diphenoxylate hydrochloride] had a half-inhibitory concentration (IC50) of 0.624 µM.
As for `O=C(Oc1ccccc1)c1cccc(C(=O)Oc2ccccc2)c1` [Diphenyl isophthalate], the figure is 25 µM.
As for `O=C(Oc1ccccc1)c1ccccc1C(=O)Oc1ccccc1` [Diphenyl phthalate], the figure is 15.5 µM.
As for `c1ccc(Sc2ccccc2)cc1` [Diphenyl sulfide], the figure is 43.6 µM.
